Data on 17 compounds can be found in EP4549424A1, “NEW LITHIUM EXTRACTING AGENT AND LIQUID ORGANIC MIXTURE THEREOF, AND METHOD FOR EXTRACTING LITHIUM BY MEANS OF EXTRACTION” (Beijing Salt Lake Technology Development Company Limited, priority 2022, dated 2024).

Values after ≈ are worked out from the molar mass of the structure shown. Where two headings read alike, the source gives them in different places. A value given as a limit tells only on which side of the number the result lay.

Data set [1] is described as follows: Liquid-liquid extraction from aqueous lithium-containing solution, ICP detection: sodium.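 Note: sodium measured by inductively coupled plasma optical emission spectrometry in the diluted aqueous phase left after shaking with the organic phase and phase separation.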
The nature of data set [2]: pH of aqueous phase after extraction or stripping.
A short description of data set [3]: Liquid-liquid extraction from aqueous lithium-containing solution, ICP detection: lithium.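 Note: component concentrations in the aqueous phase were measured by inductively coupled plasma optical emission spectrometry after shaking and phase separation.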
A short description of data set [4]: Liquid-liquid extraction from aqueous lithium-containing solution, ICP detection: potassium.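 Note: analysis by ICP optical emission spectrometry.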 To be noted: organic phase and phase ratio per example.
For data set [5] the following is noted: pH 11.48.
For data set [6] the following is noted: pH 11.48. The source holds these as a separate data set.
For data set [7] the following is noted: room temperature; public literature (www.chemicalbook.com; J. Chem. Eng. Data 2008, 53, 8, 1996-1998); cited from earlier work.
Data set [8] can be described thus: physchem. As for the experimental part: The solution loss rate is evaluated through solubility in water.
[9] abbreviates: feed B1 (cLi 0.807, cNa 56.12 g/L, pH 11.48), organic phase and phase ratio per example.
Where [10] appears, read: feed B7 (cLi 0.833, cNa 55.60, cK 5.37 g/L, pH 12.05), 26°C, organic phase and phase ratio per example.
Where [11] appears, read: feed B7 (cLi 0.833, cNa 55.60, cK 5.37 g/L, pH 12.05), 26°C.
Where [12] appears, read: feed B3 (cLi 0.937, cNa 119.10, cK 43.03 g/L, pH 9.60), organic phase and phase ratio per example.

As for “2-hydroxy-2-phenylacetophenone [Example 41]”, the “extraction rate for sodium ions” value in data set [1] (setting [9]) worked out at 11.8%. Besides, in data set [2] (feed B1 (pH 11.48)), the “pH, remaining aqueous phase R1” value is 10.1. In data set [3] (setting [9]), the “extraction rate for lithium ions” value is given as 69.3% and the “separation factor of Li/Na” value amounted to 16.8.
For the compound “2-hydroxy-5-methoxyacetophenone [Example 30]”, the “extraction rate for sodium ions” value in data set [1] (setting [10]) is 10.86%. In addition, the “extraction rate for potassium ions” value in data set [4] (setting [11]) stood at 7.08%. Besides, the “pH, remaining aqueous phase R1” value in data set [2] (feed B7 (pH 12.05)) is given as 10.30. Further, in data set [3] (setting [10]), the “extraction rate for lithium ions” value was 60.26% and the “separation factor of Li/Na” value is 12.4.
As to 2-hydroxydibenzophenone [Example 1], the “extraction rate for sodium ions” value in data set [1] (pH 11.48) was determined as 10%. Besides, the “pH, remaining aqueous phase R1” value in data set [2] (feed B1 (pH 11.48)) amounted to 10.12. The “cLi, remaining aqueous phase R1” value in data set [5] is reported as 0.257 g/L. Moreover, in data set [3] (pH 11.48), the “extraction rate for lithium ions” value was 68.2% and the “separation factor of Li/Na” value stood at 19.2. Also, in data set [6], the “cNa, remaining aqueous phase R1” value was 50.50 g/L.
Turning to `O=C(c1ccccc1)c1ccc(O)cc1O` [2,4-dihydroxydibenzophenone], in data set [7], the “solubility in pure water” value is 700 µg/mL (≈ 3270 µM).
The solubility is the dissolved amount per volume that the medium holds. A lower solubility goes with a poorly soluble substance. With `COc1ccc(C(=O)c2ccccc2)c(O)c1` [2-hydroxy-4-methoxydibenzophenone], the solubility in data set [8] (water) is less than 1000 µg/mL.
`CCCCCCCCOc1cc(O)c(C(=O)c2ccccc2)cc1[N+](=O)[O-]` [2-hydroxy-4-octyloxy-5-nitrodibenzophenone]: the “solubility in pure water” value in data set [8] came out at 10 µg/mL (≈ 26.9 µM).
Same read-out and setting: under `CCCCCCCCOc1ccc(C(=O)c2ccccc2)c(O)c1[N+](=O)[O-]` [4-octyloxy-3-nitro-2-hydroxydibenzophenone] stands 10 µg/mL (≈ 26.9 µM); under `CCCCCOc1ccc(C(=O)c2ccccc2)c(O)c1` [4-pentyloxy-2-hydroxydibenzophenone], 50 µg/mL (≈ 176 µM).
Regarding `O=C(c1ccccc1)c1cc([N+](=O)[O-])c(OCc2ccccc2)cc1O` [Example 12, 4-benzyloxy-5-nitro-2-hydroxydibenzophenone], the “extraction rate for sodium ions” value in data set [1] (setting [12]) is reported as 10.1%. For the same compound, the “extraction rate for potassium ions” value in data set [4] (feed B3 (cLi 0.937, cNa 119.10, cK 43.03 g/L, pH 9.60)) was 8.3%. In addition, in data set [2] (feed B3 (pH 9.60)), the “pH, remaining aqueous phase R1” value stood at 8.66. In addition, in data set [3] (setting [12]), the “extraction rate for lithium ions” value is on record as 85.7%, the “separation factor of Li/K” value is recorded as 66.0 and the “separation factor of Li/Na” value was found to be 53.4.
Take `COc1ccc(C(C)=O)c(O)c1OC` [Example 33, 2-hydroxy-3,4-dimethoxyacetophenone]: in data set [1] (setting [10]), the “extraction rate for sodium ions” value was 11.94%. Besides, in data set [4] (setting [11]), the “cK, remaining aqueous phase R1” value stood at 4.95 g/L and the “extraction rate for potassium ions” value is given as 7.8%. For the same compound, in data set [3] (setting [10]), the “extraction rate for lithium ions” value is 50.06% and the “separation factor of Li/Na” value is recorded as 7.4.
Consider `CC(=O)c1cccc([N+](=O)[O-])c1O` [Example 34, 2-hydroxy-3-nitrocetophenone], for which the “extraction rate for sodium ions” value in data set [1] (setting [10]) was found to be 8.17%. Further, the “extraction rate for potassium ions” value in data set [4] (setting [11]) was 4.5%. In data set [3] (setting [10]), the “extraction rate for lithium ions” value was 93.28% and the “separation factor of Li/Na” value worked out at 156.
For `CC(=O)c1ccc([N+](=O)[O-])cc1O` [Example 35, 2-hydroxy-4-nitrocetophenone] the same measures were 7.09%, 3.0%, 91.72% and 145.
For `CC(=O)c1c(O)cccc1[N+](=O)[O-]` [Example 36, 2-hydroxy-6-nitrocetophenone] the same measures were 8.2%, 9.3%, 81.1% and 48.
For the compound `CC(=O)c1cc(Cl)cc([N+](=O)[O-])c1O` [Example 37, 5-chloro-2-hydroxy-3-nitrocetophenone], in data set [1] (setting [10]), the “extraction rate for sodium ions” value came to 8.7%. For the same compound, in data set [4] (setting [11]), the “cK, remaining aqueous phase R1” value is on record as 4.93 g/L and the “extraction rate for potassium ions” value was determined as 9.2%. Also, in data set [3] (setting [10]), the “extraction rate for lithium ions” value was determined as 92.1% and the “separation factor of Li/Na” value stood at 120.
The like results for `O=C(c1ccccc1)c1cc(Cl)ccc1O` [Example 38, 2-hydroxy-5-chlorodibenzophenone] were, in that order, 8.7%, 4.99 g/L, 7.1%, 56.06% and 13.5.
In the case of `CC(=O)c1cc(I)ccc1O` [Example 39, 2-hydroxy-5-iodoacetophenone], in data set [1] (setting [10]), the “extraction rate for sodium ions” value is 10.3%. The “extraction rate for potassium ions” value in data set [4] (setting [11]) came to 8.5%. In data set [3] (setting [10]), the “extraction rate for lithium ions” value is 48% and the “separation factor of Li/Na” value is given as 8.
As to `O=C(CC(=O)C(F)(F)F)c1ccccc1` [benzoyltrifluoroacetone], the “solubility in pure water” value in data set [7] is 240 µg/mL (≈ 1110 µM).
